Measurements from ChEMBL document CHEMBL1150899, “Novel quinone methides from Salacia kraussii with in vitro antimalarial activity” (J Nat Prod, 1998).
In brackets after ≈: the same amount, converted by molar mass.

Tests used:
Plasmodium falciparum [1] = test: Antiplasmodial activity against chloroquine-resistant Plasmodium falciparum K1 infected human erythrocytes as [3H]hypoxanthine uptake; format: functional, organism-based
Plasmodium falciparum [2] = test: Antiplasmodial activity against chloroquine-sensitive Plasmodium falciparum NF54 infected human erythrocytes as [3H]hypoxanthine uptake; format: functional, organism-based
Mus musculus = test: Toxicity against Plasmodium berghei-infected mice (Mus musculus) assessed as mortality at 10 mg/kg, subcutaneously after 1 day; format: organism-based; parameters: dose 10 mg/kg, route subcutaneous; settings: in vivo, sc, 24 h
HT-29 = test: Cytotoxicity against human HT-29 cells after 72 hrs by Alamar blue assay; format: functional, cell-based; settings: HT-29, 72 h

SMILES | IC50 (Plasmodium falciparum [1]) | IC50 (Plasmodium falciparum [2]) | Activity (Mus musculus) | IC50 (HT-29)
C=C1CC[C@]2(C=O)CC[C@]3(C)C4=CC=C5C(=CC(=O)C(O)=C5C)[C@]4(C)CC[C@@]3(C)[C@@H]2C1 | 0.094 µg/mL (≈ 0.225 µM) | 0.0799 µg/mL (≈ 0.191 µM) | – | –
C=C1CC[C@]2(C(=O)OC)CC[C@]3(C)C4=CC=C5C(=CC(=O)C(O)=C5C)[C@]4(C)CC[C@@]3(C)[C@@H]2C1 | 0.0276 µg/mL (≈ 0.0615 µM) | 0.0371 µg/mL (≈ 0.0827 µM) | Toxic | 2.38 µg/mL (≈ 5.31 µM)
C=C1CC[C@]2(CO)CC[C@]3(C)C4=CC=C5C(=CC(=O)C(O)=C5C)[C@]4(C)CC[C@@]3(C)[C@@H]2C1 | 0.114 µg/mL (≈ 0.272 µM) | 0.14 µg/mL (≈ 0.333 µM) | – | 6.06 µg/mL (≈ 14.4 µM)
CC1=C(O)C(=O)C=C2C1=CC=C1[C@@]2(C)CC[C@@]2(C)[C@@H]3C[C@](C)(C(=O)O)CC[C@]3(C)CC[C@]12C [CELASTROL] | 0.181 µg/mL (≈ 0.401 µM) | 0.254 µg/mL (≈ 0.564 µM) | – | 1.3 µg/mL (≈ 2.88 µM)
CCN(CC)CCCC(C)Nc1ccnc2cc(Cl)ccc12 (centres undefined) [CHLOROQUINE] | – | – | – | 58 µg/mL (≈ 181 µM)
CC1=C(O)C(=O)C=C2C1=CC=C1[C@@]2(C)CC[C@@]2(C)[C@@H]3C[C@H](CO)CC[C@]3(C)CC[C@]12C [ISOIGUESTEROL] | 0.0229 µg/mL (≈ 0.0542 µM) | 0.0541 µg/mL (≈ 0.128 µM) | – | 2.43 µg/mL (≈ 5.75 µM)
COC(=O)[C@]1(C)CC[C@]2(C)CC[C@]3(C)C4=CC=C5C(=CC(=O)C(O)=C5C)[C@]4(C)CC[C@@]3(C)[C@@H]2C1 [PRISTIMERIN] | 0.19 µg/mL (≈ 0.41 µM) | 0.271 µg/mL (≈ 0.583 µM) | – | 4.6 µg/mL (≈ 9.9 µM)
